Patent publication US20060239927A1, “Drug for airway administration” (Kyowa Hakko Kogyo Co.,, priority 2003, published 2006)

Key:
Format in all cases: in vivo
[1] = tested on: antigen-induced eosinophil infiltration; test: Antigen-induced eosinophil infiltration, intrabronchial administration (BALF cell count); conditions: BN rats; for Number of eosinophils: BAL 24 hours after antigenic exposure, mean ± standard error; for inhibitory effect to infiltration of eosinophils induced by antigen (in words): 30 to 100 μg/rat
Method: (§1) The test was conducted in accordance with a known method [Pulmonary Pharmacology, volume 8, pages 83-89 (1995)].
(§2) Male BN rats of six weeks age (Nippon Charles Liver) were used for the test. Five to six rats were put in each plastic cage in a breeding room where the room temperature was 19 to 25° C., humidity was 30 to 70% and a daily illumination was 12 hours (from 7 a.m. to 7 p.m.), and breeding was conducted where commercially available solid feed and water were freely taken by the rats.
(§3) A suspension (1 mL) of 1 mg of ovalbumin (OVA; manufactured by Sigma) and 200 mg of aluminum hydroxide (manufactured by Wako Pure Chemical) in 1 mL of a physiological saline (manufactured by Otsuka Pharmaceutical) was subcutaneously administered to each rat, and then 0.5 mL of a suspension of killed Virdetella pertussis (2×10^10 cells/mL physiological saline solution; manufactured by Kaken Pharmaceutical) was intraperitoneally administered to conduct active sensitization. After 14 days from the active sensitization, the rats were placed in a plastic chamber (30×50×30 cm) and subjected to an antigenic exposure by nebulizing of an 1 weight/volume % solution of OVA in a physiological saline for 10 minutes. For the nebulizing, an ultrasonic nebulizer (manufactured by Omron) was used.
(§4) By the same manner as in Test Example 1, a suspension for administration of Compound (II) was prepared and intrabronchially administered to the sensitized rats.
(§5) Before 30 minutes of the antigenic exposure, the solvent for administration or the suspension for administration of Compound (II) was intrabronchially administered to the sensitized rats at a dose of 100 μL to each of right and left bronchi (200 μL in total). A group where a suspension for administration of Compound (II) was intrabronchially administered to the sensitized rat and an 1 weight/volume % OVA-physiological saline solution was nebulized, was called a Compound (II)-administered group; a group where the solvent for administration was intrabronchially administered to the sensitized rat and an 1 weight/volume % OVA-physiological saline solution was nebulized, was called a solvent-administered group; and a group where the solvent for administration was intrabronchially administered and a physiological saline was nebulized, was called a physiological saline group.
(§6) After 24 hours of the antigenic exposure or of the nebulizing with a physiological saline, a broncho-alveolar lavage (BAL) was conducted. Thus, a rat was anesthetized by an intraperitoneal administration of pentobarbital (manufactured by Dainippon Pharmaceutical) and pulmonary alveoli cavity was washed with a physiological saline via an airway cannula to prepare a broncho-alveolar lavage fluid (BALF).
(§7) The BALF was centrifuged under the condition of 950 rpm (200×g) at 4° C. for 10 minutes, the precipitated cells were suspended in 1 mL of a physiological saline, and total leukocyte numbers were measured by an automatic blood corpuscle counter (manufactured by Nippon Koden). Smeared samples of cells were also prepared using Cytospin III (manufactured by Shandon). After the smeared sample was subjected to a Giemsa staining, 500 cells were observed under an optical microscope, numbers of eosinophils and neutrophils were counted and their ratios were calculated. Number of eosinophils and number of neutrophils were calculated by multiplying the total leukocyte numbers by each ratio of number of eosinophils and number of neutrophils, respectively. Inhibition rate (%) to increases of number of eosinophils and number of neutrophils respectively in BALF was calculated according to the following. [formula]
(§8) A: Numbrer of eosinophils or neutrophils in the solvent-administering group
(§9) B: Numbrer of eosinophils or neutrophils in the Compound (II)-administered group
(§10) C: Numbrer of eosinophils or neutrophils in the physiological saline group

[2] = tested on: antigen-induced neutrophil infiltration; test: Antigen-induced neutrophil infiltration, intrabronchial administration (BALF cell count); conditions: BN rats; for Number of neutrophils: BAL 24 hours after antigenic exposure, mean ± standard error; for inhibitory effect to infiltration of neutrophils induced by antigen (in words): 30 to 100 μg/rat
Method: as §1, §2, §3, §4, §5, §6, §7, §8, §9, §10

[3] = Changes in concentration in lung tissues and in plasma upon intra-airway (intrabronchial) administration; conditions: SD rats, 4 mg/kg; for AUC in lung tissues (concentration in lung tissues) / AUC in plasma (concentration in plasma): 0.25-4 hours; for half-life / Kp: male, rat, other: intrabronchial; for half-life: in vivo, read-out: biological half-life (T1/2) (converted); for Kp: lung tissue / plasma, read-out: ratio of concentration in lung tissues to concentration in plasma (AUC)
Method: Male rats of SD strain (Nippon Charles Liver, Kanagawa) were bred under the condition of temperature of 23±1° C. and humidity of 55±5%, and those where body weight was 210 to 240 g at seven weeks age were used for the test. Administration of the test compound (Compound (II)) was conducted under a non-fasting condition, and during the test, solid feed (F-2; Funahashi Nojo, Chiba) and tap water were freely taken by them. Case numbers for the test was made n=2 for each stage.
According to a conventional method, the preparations of Compound (II) and RP 73401 being known as a PDE-IV inhibitor [drawing 9] [J. Med. Chem., volume 37, pages 1696-1703 (1994)] were prepared (lactose/Compound (II) or RP 73401=5/1), and each of them was suspended in 0.125 weight/volume % tyloxapol (Alevaire: registered trade mark, Nippon Shoji, Osaka). The resulting suspension was further diluted with 0.125 weight/volume % tyloxapol containing 0.25 weight/volume % of lactose (Pharmatose 325 M; registered trade mark, DMV International, Veghel, The Nethelands) (a solvent for administration), and a suspension for administration of Compound (II) or RP 73401 having an desired concentration was prepared.
Each of Compound (II) and RP 73401 was intrabronchially administered at a dose of 4 mg/kg, respectively. The solvent for administration or the suspension for administration of Compound (II) or RP 73401 was intrabronchially administered to each of right and left bronchi of an ether-anesthetized rat at a dose of 100 μL (200 μL in total) using a disposable oral sound (for mice; Fuchigami Kikai, Kyoto).
At each of stages of 0.25, 0.5, 1, 2 and 4 hours after the intrabronchial administration, abdomen of rat under a light anesthetization with ether was incised, and about 1 mL of blood was collected from a descending vena cava using a heparin-treated syringe (24 G; 1 mL; Thermo, Tokyo). Plasma was separated from the blood using a cooling centrifugal separator and stored by freezing at −20° C. until the measurement. After washing the pulmonary alveoli, the bronchus was resected to collect the lung. The wet weight of the lung was measured and the lung was stored by freezing.
To 100 μL of the plasma collected hereinabove was added a 200 μL of methanol solution of 25 μg/mL 7-[2-(3,5-dichloro-4-pyridyl)-1-oxoethyl]-4-methoxy-spiro-[1,3-benzodioxole-2,1′-cyclohexane] (an internal standard substance), and the mixture was stirred. The mixture was allowed to stand for 10 minutes on ice, followed by centrifuged, and then 200 μL of the supernatant was dried under a nitrogen flow. The resulting solid was dissolved in 200 μL of methanol and centrifuged. The resulting supernatant was subjected to centrifugal filtration using a centrifugal filtration unit ultrafree (C3GV; 0.22 μm; Nippon Millipore, Tokyo). The filtrate (100 μL) was used as a plasma sample and concentrations of Compound (II) and RP 73401 were measured using a mass spectrometer (LC/MS/MS).
In an immunotube (15 mL: Nunc, Glostrup, Denmark), to the lung prepared hereinabove was added the internal standard substance in which the concentration to the lung tissues was previously made 10 μg/g lung tissues, and the mixture was dried under a nitrogen flow. To the resulting solid was added pure water (Milli-Q SP Reagent Water System: Nippon Millipore, Tokyo) in an amount of one-fold to the wet weight followed by subjecting to homogenizing using a homogenator (Ikemoto Rika Kogyo, Tokyo). A two-fold amount of methanol was further added thereto and the mixture was homogenized, allowed to stand for 10 minutes on ice and centrifuged. The supernatant (300 μL) was taken into a microtube and centrifuged once again. The resulting supernatant (100 μL) was used as a lung sample, and concentrations of Compound (II) and RP 73401 were measured by using of a high-performance liquid chromatography (HPLC).

[4] = tested on: gastric excretion; test: Inhibitory activity for gastric excretion by intrabronchial administration (Phenol Red method); conditions: SD rats, intrabronchial 30 minutes before P-C solution, 30 to 100 μg/rat
Method: Male SD rats (six weeks age; body weight upon purchase was 180 to 200 g; Nippon SLC) were used for the test. The rats were bred in an animal room where room temperature was 23±1° C., humidity was 55±5% and solid feed and drinking water were made freely taken by them.
Suspensions for administration of Compound (II) and RP 73401 were prepared by the same manner as in Test Example 1 and each of them was subjected to an intrabronchial administration.
The rats (body weight used for the experiment: about 200 g) were fasted on the day before the test (before about 24 hours) and were bred only by drinking water. A test for gastric excretion was conducted according to a Phenol Red method [Arch. Int. […]
A 1.5 mL of an 1.5 weight/volume % carboxymethyl cellulose (CMC) solution containing a 0.05 weight/volume % Phenol Red (hereinafter, referred to as P—C solution) was orally administered to the rats where one group comprised six rats. […] The extirpated stomach was incised in 40 mL of a 0.1 mol/L aqueous NaOH solution to recover the P—C solution and the amount of Phenol Red remaining in the stomach was measured. […] The gastric excretion ratio (%) in the agent-administered group or the solvent-administered group was calculated by the following equation (1) while the inhibition rate (%) of the agent to the gastric excretion was calculated from the gastric excretion ratio using the following equation (2). […]

AUC in lung tissues (concentration in lung tissues) [3] | AUC in plasma (concentration in plasma) [3] | half-life [3] | Kp [3] | SMILES | Inhibition rate to increase of number of eosinophils in BALF ([1]; 30 μg/rat) | Number of eosinophils ([1]; 30 μg/rat) | Inhibition rate to increase of number of eosinophils in BALF ([1]; 100 μg/rat) | Number of eosinophils ([1]; 100 μg/rat) | inhibitory effect to infiltration of eosinophils induced by antigen (in words) [1] | Inhibition rate to increase of number of neutrophils in BALF ([2]; 30 μg/rat) | Number of neutrophils ([2]; 30 μg/rat) | Inhibition rate to increase of number of neutrophils in BALF ([2]; 100 μg/rat) | Number of neutrophils ([2]; 100 μg/rat) | inhibitory effect to infiltration of neutrophils induced by antigen (in words) [2] | inhibitory effect to gastric excretion (in words) [4]
3640 µg·h/mL | 0.733 µg·h/mL | 3.81 h | 4970 | COc1ccc(C(=O)Cc2c(Cl)cncc2Cl)c2c1OC1(CCCC1)O2 [Compound (II), 7-[2-(3,5-dichloro-4-pyridyl)-1-oxoethyl]-4-methoxy-spiro-[1,3-benzodioxole-2,1′-cyclopentane]] | 50% | 0.09 ± 0.03 10^6/BALF | 86% | 0.04 ± 0.01^## 10^6/BALF | inhibited | 56% | 0.64 ± 0.14 10^6/BALF | 80% | 0.43 ± 0.06^# 10^6/BALF | inhibited | no significant inhibitory effect to gastric excretion was observed
248 µg·h/mL | 0.826 µg·h/mL | 0.341 h | 300 | COc1ccc(C(=O)Nc2c(Cl)cncc2Cl)cc1OC1CCCC1 [RP 73401, reference compound] |  |  |  |  | significant inhibitory activity |  |  |  |  | significant inhibitory activity | a dose-depending inhibitory effect to gastric excretion was observed
